Read-outs that look alike come from different tables or passages of the source.
Key:
pI3 kinase/p85 = assay: Hypromatrix Array phosphorylation, TRiPS cell extracts; type: cell-based, human; parameters: key: 0 (negative); + to ++++ (positive); + to ++++ (positive); + to ++++ (positive); + to ++++ (positive); settings: day 18 TRiPS cells + CD3/CD28 beads, 30 minutes at 37° C.; 0.5 mM DA-DKP or 1:500 dilution of HC 2626
Procedure: (§1) The mechanism of action of DA-DKP and HC 2626 (containing MR-DKP) was investigated. […] After the incubation, the cells were lysed in Cell-Lytic Mammalian Cell Extraction Reagent (Sigma).
(§2) The cell extracts were then separately incubated with duplicate Hypromatrix Arrays for 2 hours at room temperature, followed by two washes following the manufacturer's (Hypromatrix) protocol. The Hypromatrix Array is a nylon membrane blotted with antibodies to the transcription factors listed in Table 1 (custom manufactured by Hypromatrix). An antibody cocktail specific for phosphorylated-tyrosine, phosphorylated-serine and phosphorylated-threonine (Zymed) was added, incubated for 1 hour. Then, an anti-immunoglobulin antibody labeled with biotin was added. After washing the anti-immunoglobulin-biotin away, streptavidin-peroxidase was added, and the arrays given a final wash before adding a peroxidase-reactive luminescent substrate.

p38 MAPK = assay: as above; type: cell-based, human; parameters: key: 0 (negative); + to ++++ (positive); + to ++++ (positive); + to ++++ (positive); + to ++++ (positive); settings: day 18 TRiPS cells + CD3/CD28 beads, 30 minutes at 37° C.; 0.5 mM DA-DKP or 1:500 dilution of HC 2626
Procedure: as §1, §2

Akt ½ = assay: as above; type: cell-based, human; parameters: key: 0 (negative); + to ++++ (positive); + to ++++ (positive); + to ++++ (positive); + to ++++ (positive); settings: day 18 TRiPS cells + CD3/CD28 beads, 30 minutes at 37° C.; 0.5 mM DA-DKP or 1:500 dilution of HC 2626
Procedure: as §1, §2

c-jun = assay: as above; type: cell-based, human; parameters: key: 0 (negative); + to ++++ (positive); + to ++++ (positive); + to ++++ (positive); + to ++++ (positive); settings: day 18 TRiPS cells + CD3/CD28 beads, 30 minutes at 37° C.; 0.5 mM DA-DKP or 1:500 dilution of HC 2626
Procedure: as §1, §2

IκB-α = assay: as above; type: cell-based, human; parameters: key: 0 (negative); + to ++++ (positive); + to ++++ (positive); + to ++++ (positive); + to ++++ (positive); settings: day 18 TRiPS cells + CD3/CD28 beads, 30 minutes at 37° C.; 0.5 mM DA-DKP or 1:500 dilution of HC 2626
Procedure: as §1, §2

Rap1 = assay: as above; type: cell-based, human; parameters: key: 0 (negative); + to ++++ (positive); + to ++++ (positive); + to ++++ (positive); + to ++++ (positive); settings: day 18 TRiPS cells + CD3/CD28 beads, 30 minutes at 37° C.; 0.5 mM DA-DKP or 1:500 dilution of HC 2626
Procedure: as §1, §2

csk = assay: as above; type: cell-based, human; parameters: key: 0 (negative); + to ++++ (positive); + to ++++ (positive); + to ++++ (positive); + to ++++ (positive); settings: day 18 TRiPS cells + CD3/CD28 beads, 30 minutes at 37° C.; 0.5 mM DA-DKP or 1:500 dilution of HC 2626
Procedure: as §1, §2

CBP = assay: as above; type: cell-based, human; parameters: key: 0 (negative); + to ++++ (positive); + to ++++ (positive); + to ++++ (positive); + to ++++ (positive); settings: day 18 TRiPS cells + CD3/CD28 beads, 30 minutes at 37° C.; 0.5 mM DA-DKP or 1:500 dilution of HC 2626
Procedure: as §1, §2

fyn = assay: as above; type: cell-based, human; parameters: key: 0 (negative); + to ++++ (positive); + to ++++ (positive); + to ++++ (positive); + to ++++ (positive); settings: day 18 TRiPS cells + CD3/CD28 beads, 30 minutes at 37° C.; 0.5 mM DA-DKP or 1:500 dilution of HC 2626
Procedure: as §1, §2

ERK1 = assay: as above; type: cell-based, human; parameters: key to ERK1 phosphorylation score: 0 (negative); + to ++++ (positive); + to ++++ (positive); + to ++++ (positive); + to ++++ (positive); settings: 30 minutes at 37° C., 0.5 mM DA-DKP or 1:500 dilution of HC 2626
Procedure: as §1, §2

[1] = 12 days after stimulation with anti-CD3 OKT3 antibody, 0.5 mM DA-DKP

In the case of Asp-Ala diketopiperazine [DA-DKP], the “secretion of IL-16 from TriPS cells (FIG. 2)” value (TriPS cells; [1]) is reported as “decreased”, the “secretion of TNFα from TriPS cells (FIG. 2)” value (TriPS cells; [1]) is reported as “decreased” and the “release of pre-formed cytokines” value (TriPS cells; TRiPS cells) is reported as “inhibited”. For the same substance, the “effect on TNFα secretion from TriPS cells (FIG. 4)” value (TriPS cells; early in the stimulation cycle) was “inhibitory”, the “effect on TNFα secretion from TriPS cells (FIG. 4)” value (TriPS cells; later in the cycle (day 14)) was “stimulatory” and the “pI3 kinase/p85 phosphorylation score” value (pI3 kinase/p85) was “+”. The “p38 MAPK phosphorylation score” value (p38 MAPK) was “+++”, the “Akt ½ phosphorylation score” value (Akt ½) was “+++” and the c-jun phosphorylation score (c-jun) was “+”. The IκB-α phosphorylation score (IκB-α) was “+”, the Rap1 phosphorylation score (Rap1) was “++” and the csk phosphorylation score (csk) was “+”. The CBP phosphorylation score (CBP) was “++”, the fyn phosphorylation score (fyn) was “+” and the ERK1 phosphorylation score (ERK1; day 18 TRiPS cells + CD3/CD28 beads) was “+”. The “cytokine transcriptional factor activation (ERK1/2)” value (ERK1; day 18 TRiPS cells, CD3/CD28 beads) was “inhibited”.
